# In patent US20190105367A1, “ANTIMICROBIAL 4-OXOQUINOLIZINES” (Emergent Product Development Gaithersburg Inc., priority 2011, published 2019):
# Where two headings read alike, the source gives them in different places.
# Experiments:
# A. baumannii A14 [1] = assay: MIC without and with sub-inhibitory polymyxin B (Example 4); format: cell-based, Acinetobacter baumannii; conditions: 2nd experiment
# A. baumannii A472 [2] = assay: as above; format: cell-based, Acinetobacter baumannii; conditions: for MIC: Acinetobacter baumannii
# A. baumannii J2 [3] = assay: as above; format: cell-based, Acinetobacter baumannii; conditions: for MIC without PB/MIC + PB: A. baumannii J2; for MIC: Acinetobacter baumannii
# A. baumannii NCTC 13301 [4] = assay: as above; format: cell-based, Acinetobacter baumannii; conditions: A. baumannii NCTC 13301; +[…] PB; 2nd experiment
# A. baumannii A387 [5] = assay: Preliminary MBC without and with sub-inhibitory polymyxin B (Example 4); format: cell-based, Acinetobacter baumannii; conditions: Acinetobacter baumannii
# A. baumannii A329 [6] = assay: as above; format: cell-based, Acinetobacter baumannii; conditions: Acinetobacter baumannii, A329, A. baumannii A329, +0.06 μg/ml PB, 2nd experiment, read-out: MBC
# A. baumannii A401 [7] = assay: MIC without and with sub-inhibitory polymyxin B (Example 4); format: cell-based, Acinetobacter baumannii; conditions: for MIC: Acinetobacter baumannii
# A. baumannii ATCC 19606 = assay: as above; format: cell-based, Acinetobacter baumannii; conditions: for MIC without PB/MIC + PB: A. baumannii ATCC 19606; for MIC: Acinetobacter baumannii
# A. baumannii A329 [8] = assay: as above; format: cell-based, Acinetobacter baumannii; conditions: +0.06 μg/ml PB, 2nd experiment
# A. baumannii NCTC 13301 [9] = assay: as above; format: cell-based, Acinetobacter baumannii
# [10] = tested on: Acinetobacter sp. (H064200250); assay: as above; format: cell-based; conditions: for MIC: Acinetobacter
# A. baumannii A390 [11] = assay: as above; format: cell-based, Acinetobacter baumannii; conditions: +0.06 μg/ml PB, 2nd experiment
# A. baumannii A489 = assay: as above; format: cell-based, Acinetobacter baumannii
# A. baumannii J2 [12] = assay: Preliminary MBC without and with sub-inhibitory polymyxin B (Example 4); format: cell-based, Acinetobacter baumannii; conditions: Acinetobacter baumannii
# A. baumannii A387 [13] = assay: MIC without and with sub-inhibitory polymyxin B (Example 4); format: cell-based, Acinetobacter baumannii; conditions: for MIC without PB/MIC + PB: A. baumannii A387; for MIC: Acinetobacter baumannii
# A. baumannii A401 [14] = assay: Preliminary MBC without and with sub-inhibitory polymyxin B (Example 4); format: cell-based, Acinetobacter baumannii; conditions: Acinetobacter baumannii, A401, A baumannii A 401, +0.06 μg/ml PB, 2nd experiment, read-out: MBC
# A. baumannii A390 [15] = assay: as above; format: cell-based, Acinetobacter baumannii; conditions: Acinetobacter baumannii, A390, A. baumannii A390, +0.06 μg/ml PB, 2nd experiment, read-out: MBC
# Summary of the method: (§1)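 Plates were incubated for 18-20 hours at 37° C. MBC was taken as the lowest concentration giving colony growth ca. 90% below the positive control, typically where only single colonies or none appeared.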
# A. baumannii NCTC 13301 [16] = assay: as above; format: cell-based, Acinetobacter baumannii; conditions: Acinetobacter baumannii
# Summary of the method: as §1
# A. baumannii A14 [17] = assay: as above; format: cell-based, Acinetobacter baumannii; conditions: 2nd experiment
# Summary of the method: as §1
# A. baumannii A473 [18] = assay: as above; format: cell-based, Acinetobacter baumannii; conditions: Acinetobacter baumannii, A473, A. baumannii A473, +0.06 μg/ml PB, 2nd experiment, read-out: MBC
# Summary of the method: as §1
# A. baumannii A14 [19] = assay: MIC without and with sub-inhibitory polymyxin B (Example 4); format: cell-based, Acinetobacter baumannii; conditions: 1st experiment
# A. baumannii A473 [20] = assay: as above; format: cell-based, Acinetobacter baumannii; conditions: +0.06 μg/ml PB, 2nd experiment
# A. baumannii A472 [21] = assay: Preliminary MBC without and with sub-inhibitory polymyxin B (Example 4); format: cell-based, Acinetobacter baumannii; conditions: Acinetobacter baumannii
# [22] = A. baumannii A14, +0.06 μg/ml PB
# [23] = ratio, PB 0.06 μg/ml, 1st experiment
# [24] = A. baumannii A489, +[…] PB, 2nd experiment
structure (smiles),measurement,setting,value
"Cc1c(-c2ccc(CN)cc2)c(F)cn2c(=O)c(C(=O)O)cc(C3CC3)c12 [Compound 6, 8-(4-aminomethyl-phenyl)-1-cyclopropyl-7-fluoro-9-methyl-4-oxo-quinolizine-3-carboxylic acid]",MIC,A. baumannii A14 [1]; [22],4 µg/mL
same,MIC without PB/MIC + PB,A. baumannii A14 [1]; [22],4
same,MIC,"A. baumannii A14 [1]; Acinetobacter baumannii, A14, A. baumannii A14, without PB, read-out: MIC",16 µg/mL
same,MIC without PB/MIC + PB,"A. baumannii A472 [2]; A. baumannii A472, ratio, PB […], 1st experiment",16
same,MIC,A. baumannii A472 [2]; A472,1 µg/mL
same,MIC,"A. baumannii A472 [2]; A472, read-out: MIC +[…] PB, A. baumannii A472, +[…] polymyxin B, 1st experiment",0.5 µg/mL
same,MIC without PB/MIC + PB,"A. baumannii J2 [3]; +[…] PB, 2nd experiment",32
same,MIC without PB/MIC + PB,"A. baumannii J2 [3]; ratio, PB […], 1st experiment",16
same,MIC,A. baumannii J2 [3]; J2,0.25 µg/mL
same,MIC,"A. baumannii J2 [3]; J2, read-out: MIC +[…] PB, A. baumannii J2, +[…] polymyxin B, 1st experiment",1 µg/mL
same,MIC without PB/MIC + PB,A. baumannii NCTC 13301 [4],16
same,MBC,"A. baumannii A387 [5]; A387, A. baumannii A387, +0.06 μg/ml PB, 2nd experiment, read-out: MBC",1 µg/mL
same,MBC,"A. baumannii A387 [5]; A387, read-out: MBC +0.06 μg/ml PB, A. baumannii A387, +0.06 μg/ml polymyxin B, 1st experiment",0.5 µg/mL
same,MBC,A. baumannii A329 [6],8 µg/mL
same,MIC without PB/MIC + PB,"A. baumannii A401 [7]; A baumannii A 401, ratio, PB 0.06 μg/ml, 1st experiment",4
same,MIC,"A. baumannii A401 [7]; A401, A baumannii A 401, +0.06 μg/ml PB, 2nd experiment, read-out: MIC",4 µg/mL
same,MIC,"A. baumannii A401 [7]; A401, read-out: MIC +0.06 μg/ml PB, A baumannii A 401, +0.06 μg/ml polymyxin B, 1st experiment",4 µg/mL
same,MIC without PB/MIC + PB,"A. baumannii ATCC 19606; +0.06 μg/ml PB, 2nd experiment",4
same,MIC without PB/MIC + PB,A. baumannii ATCC 19606; [23],8
same,MIC,"A. baumannii ATCC 19606; ATCC19606, A. baumannii ATCC 19606, +0.06 μg/ml PB, 2nd experiment, read-out: MIC",0.06 µg/mL
same,MIC,"A. baumannii ATCC 19606; ATCC19606, read-out: MIC +0.06 μg/ml PB, A. baumannii ATCC 19606, +0.06 μg/ml polymyxin B, 1st experiment",0.06 µg/mL
same,MIC without PB/MIC + PB,A. baumannii A329 [8]; A. baumannii A329,2
same,MIC,"A. baumannii A329 [8]; Acinetobacter baumannii, A329, A. baumannii A329, read-out: MIC",8 µg/mL
same,MIC without PB/MIC + PB,"A. baumannii NCTC 13301 [9]; A. baumannii NCTC 13301, ratio, PB […], 1st experiment",32
same,MIC,"A. baumannii NCTC 13301 [9]; Acinetobacter baumannii, NCTC13301, read-out: MIC +[…] PB",1 µg/mL
same,MIC,[10],2 µg/mL
same,MIC without PB/MIC + PB,"[10]; Acinetobacter spp. H064200250 (OXA51), +[…] PB, 2nd experiment",8
same,MIC without PB/MIC + PB,"[10]; Acinetobacter spp. H064200250, ratio, PB […], 1st experiment",2
same,MIC,"[10]; read-out: MIC +[…] PB, Acinetobacter spp. H064200250, +[…] polymyxin B, 1st experiment",4 µg/mL
same,MIC without PB/MIC + PB,A. baumannii A390 [11]; A. baumannii A390,8
same,MIC,"A. baumannii A390 [11]; Acinetobacter baumannii, A390, A. baumannii A390, read-out: MIC",2 µg/mL
same,MIC,A. baumannii A489; [24],0.5 µg/mL
same,MIC without PB/MIC + PB,A. baumannii A489; [24],8
same,MIC without PB/MIC + PB,"A. baumannii A489; A. baumannii A489, ratio, PB […], 1st experiment",16
same,MIC,"A. baumannii A489; Acinetobacter baumannii, A489, read-out: MIC +[…] PB, A. baumannii A489, +[…] polymyxin B, 1st experiment",0.5 µg/mL
same,MBC,A. baumannii J2 [12]; J2,0.25 µg/mL
same,MBC,"A. baumannii J2 [12]; J2, read-out: MBC +[…] PB, A. baumannii J2, +[…] polymyxin B, preliminary MBC, 1st experiment",1 µg/mL
same,MIC without PB/MIC + PB,"A. baumannii A387 [13]; +0.06 μg/ml PB, 2nd experiment",4
same,MIC without PB/MIC + PB,A. baumannii A387 [13]; [23],8
same,MIC,"A. baumannii A387 [13]; A387, A. baumannii A387, +0.06 μg/ml PB, 2nd experiment, read-out: MIC",1 µg/mL
same,MIC,"A. baumannii A387 [13]; A387, read-out: MIC +0.06 μg/ml PB, A. baumannii A387, +0.06 μg/ml polymyxin B, 1st experiment",0.5 µg/mL
same,MBC,A. baumannii A401 [14],32 µg/mL
same,MBC,A. baumannii A390 [15],2 µg/mL
same,MBC,A. baumannii NCTC 13301 [16]; NCTC13301,2 µg/mL
same,MBC,"A. baumannii NCTC 13301 [16]; NCTC13301, read-out: MBC +[…] PB",4 µg/mL
same,MBC,A. baumannii A14 [17]; [22],8 µg/mL
same,MBC,"A. baumannii A14 [17]; Acinetobacter baumannii, A14, A. baumannii A14, without PB, read-out: MBC",16 µg/mL
same,MBC,A. baumannii A473 [18],2 µg/mL
same,MIC +0.06 μg/ml PB,A. baumannii A14 [19]; +0.06 μg/ml polymyxin B,8 µg/mL
same,MIC without PB/MIC + PB,"A. baumannii A14 [19]; ratio, PB 0.06 μg/ml",4
same,MIC without PB/MIC + PB,A. baumannii A473 [20]; A. baumannii A473,4
same,MIC,"A. baumannii A473 [20]; Acinetobacter baumannii, A473, A. baumannii A473, read-out: MIC",2 µg/mL
same,MBC,A. baumannii A472 [21]; A472,1 µg/mL
same,MBC,"A. baumannii A472 [21]; A472, read-out: MBC +[…] PB, A. baumannii A472, +[…] polymyxin B, preliminary MBC, 1st experiment",0.5 µg/mL
